Measured values reported in ChEMBL document CHEMBL5038632, “Discovery and Characterization of Potent Dual P-Glycoprotein and CYP3A4 Inhibitors: Design, Synthesis, Cryo-EM Analysis, and Biological Evaluations” (J Med Chem, 2022).

test system: not listed separately; assay: Apparent permeability across basolateral side to apical side in MDCK1 cells at 3 uM by LC/MS/MS analysis; assay type: ADME, cell-based, Canis lupus familiaris; conditions: dog, MDCK

Row | SMILES | Papp B→A at 3 µM
1 | COc1cc2c(cc1OC)CN(CCc1ccc(-n3nnc(-c4cc(Oc5cccnc5)ccc4NC(=O)c4cc(=O)c5ccccc5o4)n3)cc1)CC2 | < 0.002 ×10⁻⁶ cm/s

test system: not listed separately; assay: Apparent permeability across apical to basolateral side in MDCK1 cells at 3 uM by LC/MS/MS analysis; assay type: ADME, cell-based, Canis lupus familiaris; conditions: dog, MDCK

Row | SMILES | Papp A→B at 3 µM
2 | COc1cc2c(cc1OC)CN(CCc1ccc(-n3nnc(-c4cc(Oc5cccnc5)ccc4NC(=O)c4cc(=O)c5ccccc5o4)n3)cc1)CC2 | 0.0093 ×10⁻⁶ cm/s

test system: MES-SA/Dx5; assay: Cytotoxicity in human MES-SA/Dx5 cells assessed as reduction in cell viability at 1.28 uM incubated for 3 days by MTT assay relative to control; assay type: toxicity, cell-based; conditions: mes-sa/dx5, 72 h, time 3 day

Row | SMILES | Activity
3 | COc1cc2c(cc1OC)CN(CCc1ccc(-n3nnc(-c4cc(OCc5ccncc5)ccc4NC(=O)c4cc(=O)c5ccccc5o4)n3)cc1)CC2 | 33%
4 | CC(=O)N1CCN(c2ccc(OCC3COC(Cn4ccnc4)(c4ccc(Cl)cc4Cl)O3)cc2)CC1 (centres undefined) [KETOCONAZOLE] | 39%
5 | COc1cc2c(cc1OC)CN(CCc1ccc(-n3nnc(-c4cc(Oc5cccnc5)ccc4NC(=O)c4cc(=O)c5ccccc5o4)n3)cc1)CC2 | 2%
6 | COc1cc(NC(=O)c2cc(=O)c3ccccc3o2)c(-c2nnn(-c3ccc(CCN4CCc5ccc(-n6ccnc6)cc5C4)cc3)n2)cc1OC | 1%
7 | COc1cc2c(cc1OC)CN(CCc1ccc(-n3nnc(-c4cc(OC)c(OC)cc4NC(=O)c4cc(=O)c5cc(-c6ccncc6)ccc5o4)n3)cc1)CC2 | 1%
8 | COc1cc2c(cc1OC)CN(CCc1ccc(-n3nnc(-c4cc(OCc5cccnc5)c(OC)cc4NC(=O)c4cc(=O)c5ccccc5o4)n3)cc1)CC2 | 36%
9 | COc1cc2c(cc1OC)CN(CCc1ccc(-n3nnc(-c4cc(OC)c(OC)cc4NC(=O)c4cc(=O)c5cc(-n6ccnc6)ccc5o4)n3)cc1)CC2 | 6%
10 | COc1cc2c(cc1OC)CN(CCc1ccc(-n3nnc(-c4cc(OC)c(OC)cc4NC(=O)c4ccc(-c5cccnc5)cc4)n3)cc1)CC2 | 0%
11 | COc1cc(NC(=O)c2cc(=O)c3ccccc3o2)c(-c2nnn(-c3ccc(CCN4CCc5cnccc5C4)cc3)n2)cc1OCc1ccccc1 | 3%
12 | COc1cc2c(cc1OC)CN(CCc1ccc(-n3nnc(-c4cc(Oc5ccncc5)ccc4NC(=O)c4cc(=O)c5ccccc5o4)n3)cc1)CC2 | 9%
13 | COc1cc2c(cc1OC)CN(CCc1ccc(-n3nnc(-c4cc(OC)c(OC)cc4NC(=O)c4cc(=O)c5ccccc5o4)n3)cc1)CC2 | 6%

target: Cytochrome P450 3A4 (Homo sapiens, UniProt P08684); assay: Inhibition of CYP3A4 in human liver microsomes using IPA as substrate preincubated for 10 mins followed by NADPH generating system addition and measured after 20 mins; conditions: not given
Sequence (P08684 whole entry): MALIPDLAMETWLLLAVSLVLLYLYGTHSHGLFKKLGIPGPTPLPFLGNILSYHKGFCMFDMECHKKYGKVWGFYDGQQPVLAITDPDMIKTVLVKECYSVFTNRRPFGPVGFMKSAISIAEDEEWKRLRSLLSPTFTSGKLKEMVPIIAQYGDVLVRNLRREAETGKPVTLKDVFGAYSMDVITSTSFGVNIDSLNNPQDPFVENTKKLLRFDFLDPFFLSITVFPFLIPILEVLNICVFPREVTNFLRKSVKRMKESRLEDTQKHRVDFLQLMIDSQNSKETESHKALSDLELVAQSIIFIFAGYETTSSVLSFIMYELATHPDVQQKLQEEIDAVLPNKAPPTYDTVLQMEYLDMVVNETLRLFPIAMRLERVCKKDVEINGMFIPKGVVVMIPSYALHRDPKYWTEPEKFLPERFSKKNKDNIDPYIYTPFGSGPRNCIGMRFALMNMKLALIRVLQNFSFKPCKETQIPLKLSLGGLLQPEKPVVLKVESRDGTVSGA

Row | SMILES | IC50
14 | COc1cc2c(cc1OC)CN(CCc1ccc(-n3nnc(-c4cc(OCc5ccncc5)ccc4NC(=O)c4cc(=O)c5ccccc5o4)n3)cc1)CC2 | > 9 µM
15 | COc1cc2c(cc1OC)CN(CCc1ccc(-n3nnc(-c4cc(Oc5cccnc5)ccc4NC(=O)c4cc(=O)c5ccccc5o4)n3)cc1)CC2 | 1.47 µM
16 | COc1cc(NC(=O)c2cc(=O)c3ccccc3o2)c(-c2nnn(-c3ccc(CCN4CCc5ccc(-n6ccnc6)cc5C4)cc3)n2)cc1OC | 0.397 µM
17 | COc1cc2c(cc1OC)CN(CCc1ccc(-n3nnc(-c4cc(OC)c(OC)cc4NC(=O)c4cc(=O)c5cc(-c6ccncc6)ccc5o4)n3)cc1)CC2 | > 9 µM
18 | COc1cc2c(cc1OC)CN(CCc1ccc(-n3nnc(-c4cc(OCc5cccnc5)c(OC)cc4NC(=O)c4cc(=O)c5ccccc5o4)n3)cc1)CC2 | > 9 µM
19 | COc1cc2c(cc1OC)CN(CCc1ccc(-n3nnc(-c4cc(OC)c(OC)cc4NC(=O)c4cc(=O)c5cc(-n6ccnc6)ccc5o4)n3)cc1)CC2 | 3.34 µM
20 | COc1cc2c(cc1OC)CN(CCc1ccc(-n3nnc(-c4cc(OC)c(OC)cc4NC(=O)c4ccc(-c5cccnc5)cc4)n3)cc1)CC2 | > 9 µM
21 | COc1cc(NC(=O)c2cc(=O)c3ccccc3o2)c(-c2nnn(-c3ccc(CCN4CCc5cnccc5C4)cc3)n2)cc1OCc1ccccc1 | 1.24 µM
22 | COc1cc2c(cc1OC)CN(CCc1ccc(-n3nnc(-c4cc(Oc5ccncc5)ccc4NC(=O)c4cc(=O)c5ccccc5o4)n3)cc1)CC2 | > 9 µM
23 | COc1cc2c(cc1OC)CN(CCc1ccc(-n3nnc(-c4cc(OC)c(OC)cc4NC(=O)c4cc(=O)c5ccccc5o4)n3)cc1)CC2 | > 9 µM

test system: not listed separately; assay: Cmax in CD-1 mouse at 20 mg/kg, po by LC-MS/MS analysis; assay type: ADME, organism-based; set-up: route oral, dose 20 mg/kg; conditions: in vivo

Row | SMILES | Cmax
24 | COc1cc2c(cc1OC)CN(CCc1ccc(-n3nnc(-c4cc(Oc5cccnc5)ccc4NC(=O)c4cc(=O)c5ccccc5o4)n3)cc1)CC2 | 3.4 nM

test system: MDR1; assay: Apparent permeability across apical to basolateral side in MDCKII-MDR1 cells at 3 uM by LC/MS/MS analysis; assay type: ADME, cell-based, Canis lupus familiaris; conditions: dog, MDCK-MDR1

Row | SMILES | Papp A→B at 3 µM
25 | COc1cc2c(cc1OC)CN(CCc1ccc(-n3nnc(-c4cc(Oc5cccnc5)ccc4NC(=O)c4cc(=O)c5ccccc5o4)n3)cc1)CC2 | 0.0072 ×10⁻⁶ cm/s

test system: MDR1; assay: Apparent permeability across basolateral side to apical side in MDCKII-MDR1 cells at 3 uM by LC/MS/MS analysis; assay type: ADME, cell-based, Canis lupus familiaris; conditions: dog, MDCK-MDR1

Row | SMILES | Papp B→A at 3 µM
26 | COc1cc2c(cc1OC)CN(CCc1ccc(-n3nnc(-c4cc(Oc5cccnc5)ccc4NC(=O)c4cc(=O)c5ccccc5o4)n3)cc1)CC2 | 0.002 ×10⁻⁶ cm/s

test system: MDR1; assay: Apparent permeability across basolateral side to apical side in MDCKII-MDR1 cells at 1 uM by LC/MS/MS analysis; assay type: ADME, cell-based, Canis lupus familiaris; conditions: dog, MDCK-MDR1

Row | SMILES | Papp B→A at 1 µM
27 | COc1cc2c(cc1OC)CN(CCc1ccc(-n3nnc(-c4cc(OC)c(OC)cc4NC(=O)c4cc(=O)c5ccccc5o4)n3)cc1)CC2 | 0.0049 ×10⁻⁶ cm/s

test system: not listed separately; assay: Efflux ratio of apparent permeability across apical to basolateral to basolateral to apical membrane membrane in MDCK1 at 3 uM; assay type: ADME, cell-based, Canis lupus familiaris; conditions: dog, mdck1, 3 µM

Row | SMILES | Ratio
28 | COc1cc2c(cc1OC)CN(CCc1ccc(-n3nnc(-c4cc(Oc5cccnc5)ccc4NC(=O)c4cc(=O)c5ccccc5o4)n3)cc1)CC2 | < 0.22

test system: not listed separately; assay: Efflux ratio of apparent permeability across apical to basolateral to basolateral to apical membrane membrane in MDCK1 at 1 uM; assay type: ADME, cell-based, Canis lupus familiaris; conditions: dog, MDCK

Row | SMILES | efflux ratio at 1 µM
29 | COc1cc2c(cc1OC)CN(CCc1ccc(-n3nnc(-c4cc(OC)c(OC)cc4NC(=O)c4cc(=O)c5ccccc5o4)n3)cc1)CC2 | 1.83

test system: not listed separately; assay: Efflux ratio of apparent permeability across apical to basolateral to basolateral to apical membrane membrane in MDCK1 at 3 uM in presence of valspodar; assay type: ADME, cell-based, Canis lupus familiaris; conditions: dog, MDCK, with valspodar (concentration not stated)

Row | SMILES | efflux ratio at 3 µM
30 | COc1cc2c(cc1OC)CN(CCc1ccc(-n3nnc(-c4cc(Oc5cccnc5)ccc4NC(=O)c4cc(=O)c5ccccc5o4)n3)cc1)CC2 | 0.085

test system: MDR1; assay: Efflux ratio of apparent permeability across apical to basolateral to basolateral to apical membrane membrane in MDCKII-MDR1 at 3 uM; assay type: ADME, cell-based, Canis lupus familiaris; conditions: dog, MDCK-MDR1

Row | SMILES | efflux ratio at 3 µM
31 | COc1cc2c(cc1OC)CN(CCc1ccc(-n3nnc(-c4cc(Oc5cccnc5)ccc4NC(=O)c4cc(=O)c5ccccc5o4)n3)cc1)CC2 | 0.277

test system: MDR1; assay: Efflux ratio of apparent permeability across apical to basolateral to basolateral to apical membrane in MDCKII-MDR1 at 1 uM; assay type: ADME, cell-based, Canis lupus familiaris; conditions: dog, MDCK-MDR1

Row | SMILES | efflux ratio at 1 µM
32 | COc1cc2c(cc1OC)CN(CCc1ccc(-n3nnc(-c4cc(OC)c(OC)cc4NC(=O)c4cc(=O)c5ccccc5o4)n3)cc1)CC2 | 5.74

test system: MDR1; assay: Efflux ratio of apparent permeability across apical to basolateral to basolateral to apical membrane membrane in MDCKII-MDR1at 3 uM in presence of valspodar; assay type: ADME, cell-based, Canis lupus familiaris; conditions: dog, MDCK-MDR1, with valspodar (concentration not stated)

Row | SMILES | efflux ratio at 3 µM
33 | COc1cc2c(cc1OC)CN(CCc1ccc(-n3nnc(-c4cc(Oc5cccnc5)ccc4NC(=O)c4cc(=O)c5ccccc5o4)n3)cc1)CC2 | 0.093

test system: not listed separately; assay: AUC (0 to t) in CD-1 mouse at 20 mg/kg, po 30 mins prior to 10 mg/kg, po docetaxel administration measured after 8 hrs by LC-MS/MS analysis; assay type: ADME, organism-based; set-up: route oral, dose 20 mg/kg, time 8.5 hrs; conditions: in vivo

Row | SMILES | AUC(0-t) at 8.5 h
34 | COc1cc2c(cc1OC)CN(CCc1ccc(-n3nnc(-c4cc(Oc5cccnc5)ccc4NC(=O)c4cc(=O)c5ccccc5o4)n3)cc1)CC2 | 11.7 ng·h/mL

test system: not listed separately; assay: Cmax in CD-1 mouse at 20 mg/kg, po 30 mins prior to 10 mg/kg, po docetaxel administration measured after 8 hrs by LC-MS/MS analysis; assay type: ADME, organism-based; set-up: route oral, time 8.5 hrs, dose 20 mg/kg; conditions: in vivo

Row | SMILES | Cmax
35 | COc1cc2c(cc1OC)CN(CCc1ccc(-n3nnc(-c4cc(Oc5cccnc5)ccc4NC(=O)c4cc(=O)c5ccccc5o4)n3)cc1)CC2 | 2.46 ng/mL

test system: not listed separately; assay: Tmax in CD-1 mouse at 20 mg/kg, po 30 mins prior to 10 mg/kg, po docetaxel administration measured after 8 hrs by LC-MS/MS analysis; assay type: ADME, organism-based; conditions: in vivo, time 8.5 hrs

Row | SMILES | Tmax
36 | COc1cc2c(cc1OC)CN(CCc1ccc(-n3nnc(-c4cc(Oc5cccnc5)ccc4NC(=O)c4cc(=O)c5ccccc5o4)n3)cc1)CC2 | 0.5 h

test system: not listed separately; assay: Half life in CD-1 mouse at 20 mg/kg, po 30 mins prior to 10 mg/kg, po docetaxel administration measured after 8 hrs by LC-MS/MS analysis; assay type: ADME, organism-based; conditions: in vivo, time 8.5 hrs

Row | SMILES | half-life
37 | COc1cc2c(cc1OC)CN(CCc1ccc(-n3nnc(-c4cc(Oc5cccnc5)ccc4NC(=O)c4cc(=O)c5ccccc5o4)n3)cc1)CC2 | 6.02 h

test system: not listed separately; assay: Efflux ratio of apparent permeability across apical to basolateral to basolateral to apical membrane membrane in MDCK1 at 1 uM in presence of valspodar; assay type: ADME, cell-based, Canis lupus familiaris; conditions: dog, MDCK, with valspodar (concentration not stated)

Row | SMILES | efflux ratio at 1 µM
38 | COc1cc2c(cc1OC)CN(CCc1ccc(-n3nnc(-c4cc(OC)c(OC)cc4NC(=O)c4cc(=O)c5ccccc5o4)n3)cc1)CC2 | 1.36

test system: MDR1; assay: Efflux ratio of apparent permeability across apical to basolateral to basolateral to apical membrane membrane in MDCKII-MDR1at 1 uM in presence of valspodar; assay type: ADME, cell-based, Canis lupus familiaris; conditions: dog, MDCK-MDR1, with valspodar (concentration not stated)

Row | SMILES | efflux ratio at 1 µM
39 | COc1cc2c(cc1OC)CN(CCc1ccc(-n3nnc(-c4cc(OC)c(OC)cc4NC(=O)c4cc(=O)c5ccccc5o4)n3)cc1)CC2 | 1.73
